From paper PMC6440935, “Characterization and phase I study of CLR457, an orally bioavailable pan-class I PI3-kinase inhibitor” (Investigational New Drugs, 2018)
Like-named read-outs stand apart in the source and are kept apart here.

Settings: drug-related
Text: The primary objective was to define the maximum tolerated dose (MTD). Secondary objectives included assessments for safety, tolerability, pharmacokinetic (PK) profile, and preliminary antitumor activity.
Patients had histologically documented locally advanced or metastatic solid tumors harboring an activating PIK3CA mutation or amplification, PTEN loss of function, c-MET activation, [16, 17] […] Other key inclusion criteria included age ≥ 18 years, Eastern Cooperative Oncology Group performance status (ECOG-PS) ≤2, adequate organ function, measurable or non-measurable disease as determined by Response Evaluation Criteria in Solid Tumors (RECIST) version 1.1.
The starting dose for CLR457 was 5 mg QD, based on preclinical toxicology studies in accordance with ICH guidelines, and was administered at the same time each day ±2 h in a fasted state. Various doses were planned up to 300 mg QD until MTD determination.
Safety was evaluated by incidence, nature, severity, and relatedness of adverse events (AEs), and graded according to National Cancer Institute - Common Terminology Criteria for Adverse Events (NCI CTCAE) v4.0.3. DLTs were defined as any hematologic or non-hematologic ≥ Grade 3 AE assessed as possibly related to CLR457 that occurred within the first cycle (28 days) of treatment. In addition, uncontrolled (> 14 days) Grade 2 rash or hyperglycemia were also considered DLTs. All AEs regardless of attribution were collected until 30 days following the last administration of treatment or study discontinuation/termination.
Descriptive methods were used to tabulate toxicity and response endpoints in the clinical trial. All patients treated with CLR457 were included for safety. […] Dose escalation was guided by an adaptive Bayesian logistic regression model (BLRM) incorporating the escalation with overdose control (EWOC) principle. […] The study data (including DLTs during cycle 1 and other safety and PK data) were reviewed by the sponsor and trial investigators at each dose level. […] The Full Analysis Set (FAS) included all patients who received at least one dose of CLR457. Safety set included all patients who received at least one dose of CLR457 and had at least one valid post-baseline assessment. The Dose-determining set (DDS) included all patients from the safety set who either met the following minimum exposure criterion and had sufficient safety evaluations, or experienced a DLT during Cycle 1 (the first 28 days of dosing). The Pharmacokinetic analysis set included all patients who had at least one blood sample providing evaluable PK data.

C[C@H]1OC(=O)N(c2cc(-c3cnc(N)nc3C(F)(F)F)nc(N3CCOCC3)n2)[C@H]1CO [CLR457]
Decreased neutrophil count, All Grade (40 mg, N = 5): 0 n (%) | Decreased neutrophil count, Grade ≥ 3 (40 mg, N = 5): 0 n (%) | Dehydration, All Grade (40 mg, N = 5): 0 n (%) | Dehydration, Grade ≥ 3 (40 mg, N = 5): 0 n (%) | Diarrhea, All Grade (40 mg, N = 5): 3 (60.0) n (%) | Diarrhea, Grade ≥ 3 (40 mg, N = 5): 0 n (%) | Dry mouth, All Grade (40 mg, N = 5): 0 n (%) | Dry mouth, Grade ≥ 3 (40 mg, N = 5): 0 n (%) | Dry skin, All Grade (40 mg, N = 5): 0 n (%) | Dry skin, Grade ≥ 3 (40 mg, N = 5): 0 n (%) | Dysgeusia, All Grade (40 mg, N = 5): 1 (20.0) n (%) | Dysgeusia, Grade ≥ 3 (40 mg, N = 5): 0 n (%) | Fatigue, All Grade (40 mg, N = 5): 1 (20.0) n (%) | Fatigue, Grade ≥ 3 (40 mg, N = 5): 0 n (%) | Headache, All Grade (40 mg, N = 5): 0 n (%) | Headache, Grade ≥ 3 (40 mg, N = 5): 0 n (%) | Hyperglycemia, All Grade (40 mg, N = 5): 2 (40.0) n (%) | Hyperglycemia, Grade ≥ 3 (40 mg, N = 5): 0 n (%) | Hypomagnesaemia, All Grade (40 mg, N = 5): 0 n (%) | Hypomagnesaemia, Grade ≥ 3 (40 mg, N = 5): 0 n (%) | Maculo-papular rash, All Grade (40 mg, N = 5): 2 (40.0) n (%) | Maculo-papular rash, Grade ≥ 3 (40 mg, N = 5): 2 (40.0) n (%) | Nausea, All Grade (40 mg, N = 5): 2 (40.0) n (%) | Nausea, Grade ≥ 3 (40 mg, N = 5): 0 n (%) | Pneumonitis, All Grade (40 mg, N = 5): 0 n (%) | Pneumonitis, Grade ≥ 3 (40 mg, N = 5): 0 n (%) | Pruritus, All Grade (40 mg, N = 5): 1 (20.0) n (%) | Pruritus, Grade ≥ 3 (40 mg, N = 5): 0 n (%) | Pyrexia, All Grade (40 mg, N = 5): 0 n (%) | Pyrexia, Grade ≥ 3 (40 mg, N = 5): 0 n (%) | Rash, All Grade (40 mg, N = 5): 0 n (%) | Rash, Grade ≥ 3 (40 mg, N = 5): 0 n (%) | Stomatitis, All Grade (40 mg, N = 5): 3 (60.0) n (%) | Stomatitis, Grade ≥ 3 (40 mg, N = 5): 0 n (%) | Vomiting, All Grade (40 mg, N = 5): 1 (20.0) n (%) | Vomiting, Grade ≥ 3 (40 mg, N = 5): 0 n (%) | Weight decreased, All Grade (40 mg, N = 5): 1 (20.0) n (%) | Weight decreased, Grade ≥ 3 (40 mg, N = 5): 0 n (%) | Asthenia, Grade ≥ 3 (70 mg, N = 6): 0 n (%) | Chills, All Grade (70 mg, N = 6): 0 n (%) | Chills, Grade ≥ 3 (70 mg, N = 6): 0 n (%) | Colitis, All Grade (70 mg, N = 6): 1 (16.7) n (%) | Colitis, Grade ≥ 3 (70 mg, N = 6): 1 (16.7) n (%) | Cough, All Grade (70 mg, N = 6): 0 n (%) | Cough, Grade ≥ 3 (70 mg, N = 6): 0 n (%) | Decreased appetite, All Grade (70 mg, N = 6): 2 (33.3) n (%) | Decreased appetite, Grade ≥ 3 (70 mg, N = 6): 0 n (%) | Decreased neutrophil count, All Grade (70 mg, N = 6): 1 (16.7) n (%) | Decreased neutrophil count, Grade ≥ 3 (70 mg, N = 6): 0 n (%) | Dehydration, All Grade (70 mg, N = 6): 1 (16.7) n (%) | Dehydration, Grade ≥ 3 (70 mg, N = 6): 1 (16.7) n (%) | Diarrhea, All Grade (70 mg, N = 6): 4 (66.7) n (%) | Diarrhea, Grade ≥ 3 (70 mg, N = 6): 1 (16.7) n (%) | Dry mouth, All Grade (70 mg, N = 6): 1 (16.7) n (%) | Dry mouth, Grade ≥ 3 (70 mg, N = 6): 0 n (%) | Dry skin, All Grade (70 mg, N = 6): 1 (16.7) n (%) | Dry skin, Grade ≥ 3 (70 mg, N = 6): 0 n (%) | Dysgeusia, All Grade (70 mg, N = 6): 0 n (%) | Dysgeusia, Grade ≥ 3 (70 mg, N = 6): 0 n (%) | Fatigue, All Grade (70 mg, N = 6): 1 (16.7) n (%) | Fatigue, Grade ≥ 3 (70 mg, N = 6): 0 n (%) | Headache, All Grade (70 mg, N = 6): 1 (16.7) n (%) | Headache, Grade ≥ 3 (70 mg, N = 6): 0 n (%) | Hyperglycemia, All Grade (70 mg, N = 6): 1 (16.7) n (%) | Hyperglycemia, Grade ≥ 3 (70 mg, N = 6): 0 n (%) | Hypomagnesaemia, All Grade (70 mg, N = 6): 1 (16.7) n (%) | Hypomagnesaemia, Grade ≥ 3 (70 mg, N = 6): 0 n (%) | Maculo-papular rash, All Grade (70 mg, N = 6): 2 (33.3) n (%) | Maculo-papular rash, Grade ≥ 3 (70 mg, N = 6): 1 (16.7) n (%) | Nausea, All Grade (70 mg, N = 6): 2 (33.3) n (%) | Nausea, Grade ≥ 3 (70 mg, N = 6): 0 n (%) | Pneumonitis, All Grade (70 mg, N = 6): 0 n (%) | Pneumonitis, Grade ≥ 3 (70 mg, N = 6): 0 n (%) | Pruritus, All Grade (70 mg, N = 6): 1 (16.7) n (%) | Pruritus, Grade ≥ 3 (70 mg, N = 6): 0 n (%) | Pyrexia, All Grade (70 mg, N = 6): 1 (16.7) n (%) | Pyrexia, Grade ≥ 3 (70 mg, N = 6): 0 n (%) | Rash, All Grade (70 mg, N = 6): 2 (33.3) n (%) | Rash, Grade ≥ 3 (70 mg, N = 6): 1 (16.7) n (%) | Stomatitis, All Grade (70 mg, N = 6): 2 (33.3) n (%) | Stomatitis, Grade ≥ 3 (70 mg, N = 6): 0 n (%) | Vomiting, All Grade (70 mg, N = 6): 2 (33.3) n (%) | Vomiting, Grade ≥ 3 (70 mg, N = 6): 0 n (%) | Weight decreased, All Grade (70 mg, N = 6): 1 (16.7) n (%) | Weight decreased, Grade ≥ 3 (70 mg, N = 6): 0 n (%) | Asthenia, Grade ≥ 3 (100 mg, N = 11): 0 n (%) | Chills, All Grade (100 mg, N = 11): 2 (18.2) n (%) | Chills, Grade ≥ 3 (100 mg, N = 11): 0 n (%) | Colitis, All Grade (100 mg, N = 11): 1 (9.1) n (%) | Colitis, Grade ≥ 3 (100 mg, N = 11): 1 (9.1) n (%) | Cough, All Grade (100 mg, N = 11): 2 (18.2) n (%) | Cough, Grade ≥ 3 (100 mg, N = 11): 0 n (%) | Decreased appetite, All Grade (100 mg, N = 11): 4 (36.4) n (%) | Decreased appetite, Grade ≥ 3 (100 mg, N = 11): 0 n (%) | Decreased neutrophil count, All Grade (100 mg, N = 11): 1 (9.1) n (%) | Decreased neutrophil count, Grade ≥ 3 (100 mg, N = 11): 1 (9.1) n (%)
